Among the data in US9156872B2, “2′-azido substituted nucleoside derivatives and methods of use thereof for the treatment of viral diseases” (priority 2011, dated 2015) are EC50 values, retold here.

The EC50 is the concentration that produces a half-maximal response.

The structures appear in SMILES notation.

One experiment relates to HCV replicon cells. In words: Cell-based HCV replicon assay (replicon RNA by Taqman real time PCR). Conditions: Hepatitis C virus, 72 h, read-out: 1b EC50.
Turning to `C[C@H](NP(=O)(OC[C@H]1O[C@@H](n2ccc(N)nc2=O)[C@](C)(N=[N+]=[N-])[C@@H]1O)Oc1ccccc1)C(=O)OCc1ccccc1` (single isomer, unassigned) [Compound 191], the EC50 turned out to be 25 µM.
The same measure, in the same setting: for `CCOC(=O)c1cccc(OP(=O)(N[C@@H](C)C(=O)OC)OC[C@H]2O[C@@H](n3ccc(=O)[nH]c3=O)[C@](C)(N=[N+]=[N-])[C@@H]2O)c1` (single isomer, unassigned) [Compound 213] the value was 7.9 µM; for `CCOC(=O)[C@H](C)NP(=O)(OC[C@H]1O[C@@H](n2cnc3c(OC)nc(N)nc32)[C@](C)(N=[N+]=[N-])[C@@H]1O)Oc1ccc(Cl)cc1` (single isomer, unassigned) [Compound 238], 1.2 µM.
Regarding `CCOC(=O)[C@H](C)NP(=O)(OC[C@H]1O[C@@H](n2cnc3c(OC)nc(N)nc32)[C@](C)(N=[N+]=[N-])C1O)Oc1ccccc1` (single isomer, unassigned) [Compound 251], the EC50 came out at 0.4 µM.
On the same count and under the same terms, for `COc1nc(N)nc2c1ncn2[C@@H]1O[C@H](COP(=O)(N[C@@H](C)C(=O)OC(C)C)Oc2ccccc2)C(O)[C@@]1(C)N=[N+]=[N-]` (single isomer, unassigned) [Compound 252] the value was 1.1 µM.
On the same count and under the same terms, for `COC(=O)[C@H](C)NP(=O)(OC[C@H]1O[C@@H](n2cnc3c(OC)nc(N)nc32)[C@](C)(N=[N+]=[N-])C1O)Oc1cccc2ccccc12` (single isomer, unassigned) [Compound 254] the value was 1 µM; for `COC(=O)[C@H](C)NP(=O)(OC[C@H]1O[C@@H](n2cnc3c(OC)nc(N)nc32)[C@](C)(N=[N+]=[N-])[C@@H]1O)Oc1ccccc1Cl` (single isomer, unassigned) [Compound 256], 1.4 µM.
Regarding `COC(=O)[C@H](C)NP(=O)(OC[C@H]1O[C@@H](n2cnc3c(OC)nc(N)nc32)[C@](C)(N=[N+]=[N-])[C@@H]1O)Oc1ccc(Cl)cc1` (single isomer, unassigned) [Compound 258], the EC50 worked out at 0.8 µM.
On to `CCCCOC(=O)[C@H](C)NP(=O)(OC[C@H]1O[C@@H](n2cnc3c(OC)nc(N)nc32)[C@](C)(N=[N+]=[N-])C1O)Oc1ccccc1` (single isomer, unassigned) [Compound 262], for which the EC50 worked out at 2.4 µM.

Still in this experiment, the particulars now being: read-out: 1b EC50.
For the compound `C[C@H](NP(=O)(OC[C@H]1O[C@@H](n2ccc(N)nc2=O)[C@](C)(N=[N+]=[N-])[C@@H]1O)Oc1ccccc1)C(=O)OCc1ccccc1` (single isomer, unassigned) [Compound 192], the EC50 was found to be 19 µM.
Turning to `COC(=O)[C@H](C)NP(=O)(OC[C@H]1O[C@@H](n2ccc(N)nc2=O)[C@](C)(N=[N+]=[N-])[C@@H]1O)Oc1ccc(Cl)c(Cl)c1` (single isomer, unassigned) [Compound 193], the EC50 was determined as 61 µM.
As to `COC(=O)[C@H](C)NP(=O)(OC[C@H]1O[C@@H](n2ccc(N)nc2=O)[C@](C)(N=[N+]=[N-])[C@@H]1O)Oc1ccc(Cl)c(Cl)c1` (single isomer, unassigned) [Compound 194], the EC50 was 35 µM.
As for `COC(=O)[C@H](C)NP(=O)(OC[C@H]1O[C@@H](n2ccc(N)nc2=O)[C@](C)(N=[N+]=[N-])[C@@H]1O)Oc1ccccc1Cl` (single isomer, unassigned) [Compound 201], the EC50 worked out at 12 µM.
The same measure, in the same setting: for `COC(=O)[C@H](C)NP(=O)(OC[C@H]1O[C@@H](n2ccc(N)nc2=O)[C@](C)(N=[N+]=[N-])[C@@H]1O)Oc1ccccc1Cl` (single isomer, unassigned) [Compound 202] the value was 10 µM; for `CC(C)OC(=O)[C@H](C)NP(=O)(OC[C@H]1O[C@@H](n2ccc(N)nc2=O)[C@](C)(N=[N+]=[N-])[C@@H]1O)Oc1ccccc1Cl` (single isomer, unassigned) [Compound 203], 20 µM.
Same read-out and setting: for `CC(C)OC(=O)[C@H](C)NP(=O)(OC[C@H]1O[C@@H](n2ccc(N)nc2=O)[C@](C)(N=[N+]=[N-])[C@@H]1O)Oc1ccccc1Cl` (single isomer, unassigned) [Compound 204] the value was 1.3 µM; for `CC(C)COC(=O)[C@H](C)NP(=O)(OC[C@H]1O[C@@H](n2ccc(=O)[nH]c2=O)[C@](C)(N=[N+]=[N-])[C@@H]1O)Oc1ccccc1` (single isomer, unassigned) [Compound 210], 3.3 µM.
Same read-out and setting: for `CC(C)COC(=O)[C@H](C)NP(=O)(OC[C@H]1O[C@@H](n2ccc(=O)[nH]c2=O)[C@](C)(N=[N+]=[N-])[C@@H]1O)Oc1ccccc1` (single isomer, unassigned) [Compound 211] the value was 0.8 µM.
As to `CCOC(=O)c1cccc(OP(=O)(N[C@@H](C)C(=O)OC)OC[C@H]2O[C@@H](n3ccc(=O)[nH]c3=O)[C@](C)(N=[N+]=[N-])[C@@H]2O)c1` (single isomer, unassigned) [Compound 214], the EC50 came to 12 µM.
Still for that read-out and setting: for `COC(=O)c1ccccc1OP(=O)(N[C@@H](C)C(=O)OC)OC[C@H]1O[C@@H](n2ccc(=O)[nH]c2=O)[C@](C)(N=[N+]=[N-])[C@@H]1O` (single isomer, unassigned) [Compound 215] the value was 3.1 µM; for `COC(=O)c1ccccc1OP(=O)(N[C@@H](C)C(=O)OC)OC[C@H]1O[C@@H](n2ccc(=O)[nH]c2=O)[C@](C)(N=[N+]=[N-])[C@@H]1O` (single isomer, unassigned) [Compound 216], 1.3 µM.
The same measure, in the same setting: for `COC(=O)[C@H](C)NP(=O)(OC[C@H]1O[C@@H](n2ccc(=O)[nH]c2=O)[C@](C)(N=[N+]=[N-])[C@@H]1O)Oc1cccc2ccccc12` (single isomer, unassigned) [Compound 217] the value was 2.1 µM.
On the same count and under the same terms, for `COC(=O)[C@H](C)NP(=O)(OC[C@H]1O[C@@H](n2ccc(=O)[nH]c2=O)[C@](C)(N=[N+]=[N-])[C@@H]1O)Oc1cccc2ccccc12` (single isomer, unassigned) [Compound 218] the value was 4.6 µM.
Take `CCOC(=O)c1ccccc1OP(=O)(N[C@@H](C)C(=O)OC)OC[C@H]1O[C@@H](n2ccc(=O)[nH]c2=O)[C@](C)(N=[N+]=[N-])[C@@H]1O` (single isomer, unassigned) [Compound 225]: the EC50 came out at 2.8 µM.
Take `CCOC(=O)c1ccccc1OP(=O)(N[C@@H](C)C(=O)OC)OC[C@H]1O[C@@H](n2ccc(=O)[nH]c2=O)[C@](C)(N=[N+]=[N-])[C@@H]1O` (single isomer, unassigned) [Compound 226]: the EC50 turned out to be 26 µM.
Regarding `COC(=O)c1ccccc1OP(=O)(N[C@@H](C)C(=O)OC)OC[C@H]1O[C@@H](n2ccc(=O)[nH]c2=O)[C@](C)(N=[N+]=[N-])[C@@H]1O` (single isomer, unassigned) [Compound 227], the EC50 is 3.1 µM.
Take `COC(=O)c1ccccc1OP(=O)(N[C@@H](C)C(=O)OC)OC[C@H]1O[C@@H](n2ccc(=O)[nH]c2=O)[C@](C)(N=[N+]=[N-])[C@@H]1O` (single isomer, unassigned) [Compound 228]: the EC50 was 1.3 µM.
Regarding `C[C@H](NP(=O)(OC[C@H]1O[C@@H](n2ccc(=O)[nH]c2=O)[C@](C)(N=[N+]=[N-])[C@@H]1O)Oc1ccc(F)cc1)C(=O)OC1CCCCC1` (single isomer, unassigned) [Compound 232], the EC50 is over 100 µM.
Still for that read-out and setting: for `C[C@H](NP(=O)(OC[C@H]1O[C@@H](n2ccc(=O)[nH]c2=O)[C@](C)(N=[N+]=[N-])[C@@H]1O)Oc1ccc(F)cc1)C(=O)OC1CCCCC1` (single isomer, unassigned) [Compound 233] the value was 2.1 µM; for `COc1nc(N)nc2c1ncn2[C@@H]1O[C@H](COP(=O)(N[C@@H](C)C(=O)OC(C)C)Oc2ccccc2)C(O)[C@@]1(C)N=[N+]=[N-]` (single isomer, unassigned) [Compound 253], 0.6 µM; for `COC(=O)[C@H](C)NP(=O)(OC[C@H]1O[C@@H](n2cnc3c(OC)nc(N)nc32)[C@](C)(N=[N+]=[N-])C1O)Oc1cccc2ccccc12` (single isomer, unassigned) [Compound 255], 1.2 µM.
Consider `COC(=O)[C@H](C)NP(=O)(OC[C@H]1O[C@@H](n2cnc3c(OC)nc(N)nc32)[C@](C)(N=[N+]=[N-])[C@@H]1O)Oc1ccccc1Cl` (single isomer, unassigned) [Compound 257], for which the EC50 is 0.7 µM.
Same read-out and setting: for `COC(=O)[C@H](C)NP(=O)(OC[C@H]1O[C@@H](n2cnc3c(OC)nc(N)nc32)[C@](C)(N=[N+]=[N-])[C@@H]1O)Oc1ccc(Cl)cc1` (single isomer, unassigned) [Compound 259] the value was 0.6 µM; for `COC(=O)[C@H](C)NP(=O)(OC[C@H]1O[C@@H](n2cnc3c(OC)nc(N)nc32)[C@](C)(N=[N+]=[N-])C1O)Oc1ccccc1` (single isomer, unassigned) [Compound 260], 3.6 µM; for `COC(=O)[C@H](C)NP(=O)(OC[C@H]1O[C@@H](n2cnc3c(OC)nc(N)nc32)[C@](C)(N=[N+]=[N-])C1O)Oc1ccccc1` (single isomer, unassigned) [Compound 261], 0.9 µM.
The same measure, in the same setting: for `CCCCOC(=O)[C@H](C)NP(=O)(OC[C@H]1O[C@@H](n2cnc3c(OC)nc(N)nc32)[C@](C)(N=[N+]=[N-])C1O)Oc1ccccc1` (single isomer, unassigned) [Compound 263] the value was 1.5 µM; for `COc1nc(N)nc2c1ncn2[C@@H]1O[C@H](COP(=O)(N[C@@H](C)C(=O)OC2CCCCC2)Oc2ccc(F)cc2)[C@@H](O)[C@@]1(C)N=[N+]=[N-]` (single isomer, unassigned) [Compound 264], 0.2 µM; for `COc1nc(N)nc2c1ncn2[C@@H]1O[C@H](COP(=O)(N[C@@H](C)C(=O)OC2CCCCC2)Oc2ccc(F)cc2)[C@@H](O)[C@@]1(C)N=[N+]=[N-]` (single isomer, unassigned) [Compound 265], 2.5 µM.
On to `COC(=O)[C@H](C)NP(=O)(OC[C@H]1O[C@@H](n2cnc3c(OC)nc(N)nc32)[C@](C)(N=[N+]=[N-])[C@@H]1O)Oc1ccc(F)cc1` (single isomer, unassigned) [Compound 266], for which the EC50 came out at 2.4 µM.
Regarding `COC(=O)[C@H](C)NP(=O)(OC[C@H]1O[C@@H](n2cnc3c(OC)nc(N)nc32)[C@](C)(N=[N+]=[N-])[C@@H]1O)Oc1ccc(F)cc1` (single isomer, unassigned) [Compound 267], the EC50 was found to be 0.7 µM.
